# Source: patent US20020187945A1, “Modulation of immune response by ribavirin” (priority 1999, published 2002)
# Key:
# B7-2 mRNA = B7-2 mRNA (RT-PCR/Southern) in lymph node cells of ribavirin-treated CHS mice; type: in vivo, mouse; details: FIG. 5
# Method: (§1) To determine the effect of ribavirin on the functional role of B7-1 and B7-2 on contact hypersensitivity (CHS) responses, we measured B7-1 and B7-2 mRNA levels in RNA isolated from the lymph node cells of the animals used in the above CHS experiments. Following RT-PCR with specific primers, electrophoresis and Southern blotting, PCR products were analyzed by hybridization with 32P-labeled specific probes. […] In contrast, in C57BL/6 mice, B7-1 mRNA expression was enhanced by ribavirin, but B7-2 mRNA expression was unaffected.
# B7-1 [1] = assay: B7-1 expression by FACS in IFNα-treated splenocytes from unstimulated mice; type: cell-based, mouse; details: C57BL/6 splenocytes, with IFNα, FIG. 6 bottom panel
# From the text: (§2) We determined the levels of […] and B7-2 by FACS analysis from IFNα-treated splenocytes from unstimulated BALB/c and C57B6 mice in order to determine whether the effect of ribavirin on the functional role of B7-1 and […] was a) inducible in resting, unstimulated lymphocytes, b) required the action of a B7 inducer such as IFNα, or c) elicited the same affects on the two mouse strains upon replacing antigen stimulation with a B7 inducer. […] In contrast, in C57BL/6 splenocytes (bottom panel), IFNα-induced B7-1 expression was enhanced by ribavirin but B7-2 expression was unaffected.
# B7-1 [2] = assay: B7-1 expression by FACS in lymph node cells from DNFB-primed mice, in vitro anti-αβ TCR challenge; type: cell-based, mouse; details: C57BL/6 lymph node cells, ribavirin 5 μM, FIG. 3 bottom panel
# Method: (§3) The effect of ribavirin on B7-1 expression and B7-2 expression, at the time of challenge, in lymph node cells isolated from Ag-primed BALBc and C57BL/6 mice was examined. Mice were primed epicutaneously with dinitrofluorobenzene (DNFB) 6 days prior to concomitant ribavirin treatment (5 μM) and in vitro challenge using an immobilized anti-αβ TCR antibody. Unexpectedly, we observed opposing effects of ribavirin on DNFB-induced B7-1 expression and B7-2 expression in these two mouse strains.
# B7-2 [3] = assay: B7-2 expression by FACS in lymph node cells from DNFB-primed mice, in vitro anti-αβ TCR challenge; type: cell-based, mouse; details: BALB/c lymph node cells, ribavirin 5 μM, FIG. 3 top panel
# Method: as §3
# BALB/c and C57BL/6 mice = assay: Contact hypersensitivity (CHS) ear response to DNFB in mice; type: in vivo, mouse; details: 0.5 mg/kg i.p. at challenge, 24 hours after challenge, FIG. 4
# Method: The functional effect of this differential effect on B7-1 and B7-2 mediated by RIB was examined in an in vivo murine model of contact hypersensitivity, and a B7-2 dependent immune response (Eur. J. Immunol, 1996. 26: 880-885). Briefly, animals were primed with 2,4-dinitro-1-fluorobenzene (DNFB) (0.3%) epicutaneously on the abdomen and challenged 6 days later on each ear with 0.12% DNFB. Ribavirin-treated animals were injected intraperitoneally at the time of challenge with an optimal dose of 0.5 mg/kg in 50 μl PBS. Ear measurements were taken before challenge and 24 hours after challenge. Response to DNFB was expressed as the difference between the two ear measurements. […] Ear responses in BALB/c mice were augmented following ribavirin (RIB) treatment but were impaired in ribavirin-treated C57BL/6 mice.
# TNFα = TNFα levels in human PBMCs with B7-inducing cytokines; type: cell-based
# From the text: (§4) The differential effect by ribavirin on B7-1 and B7-2 expression as observed in the two mouse strains was examined in human peripheral blood mononuclear cells (PBMCs). Here we used three cytokines, IFNα, IFNβ, and TNFα to induce B7-1 and B7-2 expression. […] Two distinct outcomes were observed.
# B7-1 [4] = assay: B7-1 mRNA (RT-PCR) in human PBMCs with B7-inducing cytokines; type: cell-based
# From the text: as §4
# B7-2 [5] = assay: B7-2 mRNA (RT-PCR) in human PBMCs with B7-inducing cytokines; type: cell-based
# From the text: as §4
# B7-1 mRNA = B7-1 mRNA (RT-PCR/Southern) in lymph node cells of ribavirin-treated CHS mice; type: in vivo, mouse; details: FIG. 5
# Method: as §1
# B7-2 [6] = assay: B7-2 expression by FACS in IFNα-treated splenocytes from unstimulated mice; type: cell-based, mouse; details: with IFNα
# From the text: as §2
# IL-10 = IL-10 levels in human PBMCs with B7-inducing cytokines; type: cell-based
# From the text: as §4
# [7] = BALB/c mice of the CHS experiment
# [8] = C57BL/6 mice of the CHS experiment
# [9] = 24 hour incubation with B7-inducing cytokines, FIG. 7 right hand panel (B)
# [10] = 24 hour incubation with IFNα, IFNβ or TNFα, FIG. 7 left panel (A)
smiles,measurement,setting,value
"NC(=O)c1ncn([C@@H]2O[C@H](CO)[C@@H](O)[C@H]2O)n1 [ribavirin, 1-β-D-Ribofuranosyl-1,2,4-Triazole-3-Carboxamide]",B7-2 mRNA expression in lymph node cells,B7-2 mRNA; [7],augmented
same,B7-2 mRNA expression in lymph node cells,B7-2 mRNA; [8],unaffected
same,IFNα-induced B7-1 expression,B7-1 [1],enhanced
same,B7-1 expression (mean channel fluorescence),B7-1 [2],enhanced B7-1 expression
same,B7-2 expression (mean channel fluorescence),B7-2 [3],enhanced B7-2 expression
same,Inflammatory ear response to DNFB,BALB/c and C57BL/6 mice; BALB/c mice,augmented
same,Inflammatory ear response to DNFB,BALB/c and C57BL/6 mice; C57BL/6 mice,impaired
same,TNFα levels,TNFα; [9],increased
same,TNFα,TNFα; [10],concomitant decrease
same,B7-1 expression,B7-1 [4]; [9],decreased B7-1 expression
same,B7-1 mRNA expression,B7-1 [4]; [10],increased
same,B7-2 expression,B7-2 [5]; [9],increased B7-2 expression
same,B7-2 expression,B7-2 [5]; [10],decreased
same,B7-1 mRNA expression in lymph node cells,B7-1 mRNA; [7],unaffected
same,B7-1 mRNA expression in lymph node cells,B7-1 mRNA; [8],enhanced
same,IFNα-induced B7-2 expression,"B7-2 [6]; BALB/c splenocytes, FIG. 6 top panel",augmented
same,IFNα-induced B7-2 expression,"B7-2 [6]; C57BL/6 splenocytes, FIG. 6 bottom panel",unaffected
same,IL-10 levels,IL-10; [9],dropped
same,IL-10,IL-10; [10],concomitant increase
